Assay results published in US5166348A, “Bornyl and isobornyl esters of carboxylic acids of condensed tetrahydroquinoxalines” (Uralsky politekhnichesky institut, priority 1989, dated 1992).

System: influenza virus strains resistant to remantadine
Type: in vivo
Conditions: chick embryos, 1 mg/embryo

## CC1=C(C(=O)OC2CC3CCC2(C)C3(C)C)C2Nc3ccccc3N(C)C2O1 (stereo not shown) [compound 1a, isobornyl ester of 2,9-dimethyl-3a,4,9,9a-tetrahydrofuro [2,3-b] quinoxaline-3-carboxylic acid]
  sensitivity of strains resistant or only slightly sensitive to remantadine (in words): Some virus strains that are resistant or only slightly sensitive to remantadine were sensitive to the proposed compound 1a
